Measured values published in publication PMC6132687, “Stem cells are the most sensitive screening tool to identify toxicity of GATA4-targeted novel small-molecule compounds” (Archives of Toxicology, 2018).

Tested on: MEFs
Assay: MTT assay in MEFs
Format: cell-based, mouse
Conditions: 24 h, 30 µM, not statistically significant
Protocol: The cells were exposed to the test compounds for 24 h and cytotoxicity was quantified with MTT and LDH assays as described previously (Talman et al. [2011]). For the determination of cell membrane integrity, 50 µl of medium from each well was transferred onto a new 96-well plate followed by addition of 50 µl of substrate solution containing 1.3 mM β-nicotinamide adenine dinucleotide, 660 µM iodonitrotetrazolium, 54 mM L(+)-lactic acid, 280 µM phenazine methosulphate and 0.2 M Tris–HCl (pH 8.0). After a 30-min incubation, the reaction was stopped by adding 50 µl of 1 M acetic acid to each well and absorbance was measured at 490 nm using Victor2 plate reader (PerkinElmer, Turku, Finland). Spontaneous LDH release was measured from untreated cells, maximal LDH release from cells lysed with 0.9% Triton X-100 and background absorbance was measured from wells without cells. After background extraction, cytotoxicity was calculated as follows: cytotoxicity (%) = [(sample − spontaneous LDH release)/(maximal LDH release − spontaneous LDH release)] × 100. For quantification of metabolic activity, 3-(4,5-dimethylthiazol-2-yl)-2,5-diphenyltetrazolium bromide (MTT) was added to the cells at a final concentration of 0.5 mg/ml followed by 2 h incubation in cell culture conditions. […] Absorbance was measured at 550 nm and absorbance at 650 nm was subtracted as background. […]

Q: How did the “toxicity in MEFs” value turn out when `CCC(=O)N(Cc1ccc(N(CC)CC)cc1)c1c(-c2ccccc2)noc1C` [3i-1120] was run?
A: The value was “modest toxicity”.
